Experimental data from PMC5578999, “Novel quinolone chalcones targeting colchicine-binding pocket kill multidrug-resistant cancer cells by inhibiting tubulin activity and MRP1 function” (Scientific Reports, 2017).

Tests used:
Assay type in all cases: cell-based
MDA-MB-468 = assay: SRB cell viability/proliferation; settings: Homo sapiens
Experimental: (§1) and MCF10AT1 cells were cultured in Dulbecco's Modified Eagle's Medium/Ham's Nutrient Mixture F-12 (DME/F12) supplemented with 10% (volume/volume) FBS , 100 μg/ml streptom ycin and 100 units/ml penicillin, antim ycotic solution, 0.5 μg/ml hydrocortisone, 10 ng/ml human epiderm al growth factor (hEGF) and 5 μg/ml insulin, whereas MCF10CA1a cell line was cultured in DM EM supplemented with 10% FBS (volume/volume). KB-3- 1, parental human epidermoid carcinoma cell line and KB-C2, an isogenic MDR1- overexpressing drug-resistant cell line, were kindl y provided b y Dr. Amit K Tiwari, the Universit y of Toledo, OH.
(§2) Parental HEK293 and M RP1- overexpressing HEK293- MRP1 isogenic cel ls were kind gifts of Dr. Susan Cole (Queen’s Universit y, Kingston, Ontario, Canada). The pacl itaxel-resistant MDA-MB-231TaxR cell line was generated in house b y culturing MDA-MB-231 cells (purchased from ATCC and authen ticated ) in the gradual l y incr easi ng con centr ations of pacl itax el until the concentration reached to 100 nM. Cell line authentication was carried out by Genetica DNA Laboratories (Burlington, NC) using a short tandem repeat (STR) profiling method (March 2015; […]
(§3) Cell cycl e pro gr ession in the absence (sham) o r pr esence o f compound(s ) was determined with a Beckman Coulter Epics Elite FC 500 Flow C ytom eter as described previousl y (Romero

U87MG = assay: SRB cell viability/proliferation; settings: Homo sapiens, U-87 MG
Experimental: as §1, §2, §3

MRP1 [1] = molecular target: T1, MRP1 (Homo sapiens, UniProt P33527); assay: Rh123 dye efflux assay, HEK293-MRP1 cells; settings: 22 µmol/L of drug, DMSO control 39.6%
T1 construct: expressed in transfected cells; host or cells: HEK293-MRP1 (gift of Dr. Susan Cole)
T1 sequence (P33527 whole entry): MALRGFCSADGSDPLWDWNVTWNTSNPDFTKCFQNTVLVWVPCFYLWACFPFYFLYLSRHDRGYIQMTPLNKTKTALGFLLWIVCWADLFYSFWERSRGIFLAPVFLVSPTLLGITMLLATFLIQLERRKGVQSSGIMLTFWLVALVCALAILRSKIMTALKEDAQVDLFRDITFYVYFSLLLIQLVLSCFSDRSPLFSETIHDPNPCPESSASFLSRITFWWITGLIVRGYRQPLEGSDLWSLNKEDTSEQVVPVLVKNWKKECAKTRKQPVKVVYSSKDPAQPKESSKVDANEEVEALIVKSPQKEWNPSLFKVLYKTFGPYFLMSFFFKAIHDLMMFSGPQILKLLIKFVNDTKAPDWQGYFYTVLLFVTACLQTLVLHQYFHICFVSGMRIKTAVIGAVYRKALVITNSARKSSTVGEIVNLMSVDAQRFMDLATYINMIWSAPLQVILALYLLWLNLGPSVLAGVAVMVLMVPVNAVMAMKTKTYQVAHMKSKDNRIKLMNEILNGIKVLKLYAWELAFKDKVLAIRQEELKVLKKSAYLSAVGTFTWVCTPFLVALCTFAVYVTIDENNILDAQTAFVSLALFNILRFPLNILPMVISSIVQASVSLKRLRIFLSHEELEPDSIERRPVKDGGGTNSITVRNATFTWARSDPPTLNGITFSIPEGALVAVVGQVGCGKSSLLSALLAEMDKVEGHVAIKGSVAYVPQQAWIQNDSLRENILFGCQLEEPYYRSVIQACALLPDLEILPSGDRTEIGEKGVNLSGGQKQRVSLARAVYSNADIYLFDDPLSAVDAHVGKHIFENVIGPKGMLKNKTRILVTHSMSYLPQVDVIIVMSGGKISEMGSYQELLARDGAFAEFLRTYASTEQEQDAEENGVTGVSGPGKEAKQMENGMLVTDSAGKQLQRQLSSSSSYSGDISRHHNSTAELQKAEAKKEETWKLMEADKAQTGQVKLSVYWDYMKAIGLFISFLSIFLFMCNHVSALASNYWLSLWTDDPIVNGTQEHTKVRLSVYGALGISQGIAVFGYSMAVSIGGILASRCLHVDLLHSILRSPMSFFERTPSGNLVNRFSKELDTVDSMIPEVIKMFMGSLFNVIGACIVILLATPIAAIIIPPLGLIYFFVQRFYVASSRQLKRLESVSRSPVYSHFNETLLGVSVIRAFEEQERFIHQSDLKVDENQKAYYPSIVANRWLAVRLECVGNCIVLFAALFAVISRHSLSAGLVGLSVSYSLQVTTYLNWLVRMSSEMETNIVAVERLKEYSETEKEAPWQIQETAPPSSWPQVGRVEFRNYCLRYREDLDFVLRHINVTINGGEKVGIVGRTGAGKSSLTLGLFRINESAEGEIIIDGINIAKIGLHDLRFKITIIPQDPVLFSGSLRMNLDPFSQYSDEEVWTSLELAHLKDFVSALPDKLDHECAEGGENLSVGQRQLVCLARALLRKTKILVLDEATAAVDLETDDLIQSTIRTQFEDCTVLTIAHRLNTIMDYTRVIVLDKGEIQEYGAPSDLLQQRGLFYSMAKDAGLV
Experimental: Rhodamine123 (Rh123) drug efflux was carried out using a Multidrug-Resistance Direct Dye Efflux Activity Kit (Millipore, Darmstadt, Germany), with some modifications. […] Reading was carried out with a Beckman Coulter FC500 flow cytometer.

MRP1 [2] = molecular target: T1, MRP1; assay: Calcein-AM retention assay, HEK293-MRP1 cells; settings: 22 µmol/L, DMSO control 52%
SNB-75 = assay: NCI-60 SRB screen
Source text: (§4) Supplementary Table S 3: Antitumor activity of CTR -17 and CTR -20, alone or in combination […]
(§5) a Tax: paclitaxel. b mg per kg of bod y wei ght. c unit is mm 3.
(§6) Supplementary Figure l egend
(§7) 10μ M of CTR-20 was used to examine the drug’s efficac y against the NC I-60 cancer cell li nes including: six leukemia cell lines, nine non- small cell lung cancer cell lines, seven color ect al cancer cell lines, six CNS cancer cell lines, nine melanoma cell lines, seven ovari an can cer cell lines, seven ren al can cer cell lines, two prostate cancer cell lines and six breast cancer cell lines. The scr eenin g was car r ied out b y the US National Cancer Institute (NC I) us i n g a sulforhodamine B (SRB) colorimetric assay. […]
(§8) out by the NC I using five different doses of CTR -20.

HCT-116 = assay: NCI-60 SRB screen
Source text: as §4, §5, §6, §7, §8

MOLT-4 = assay: NCI-60 SRB screen
Source text: as §4, §5, §6, §7, §8

ACHN = assay: NCI-60 SRB screen; settings: 1.00E-5 Molar
Source text: as §4, §5, §6, §7, §8

HS 578T = assay: NCI-60 SRB screen
Source text: as §4, §5, §6, §7, §8

COLO 205 = assay: NCI-60 SRB screen; settings: 1.00E-5 Molar
Source text: as §4, §5, §6, §7, §8

[3] = Homo sapiens, read-out: LC50 (the source's name)

## COc1ccc2[nH]c(=O)c(/C=C/C(=O)c3ccccc3OC)cc2c1 [CTR-20, (E)-6-Methoxy-3-(3-(2-methoxyphenyl)-3-oxoprop-1-enyl) quinolin-2(1H)-one]
MDA-MB-468
  IC50: 0.12 µM
U87MG
  IC50: 1.11 µM
MRP1 [1]
  Rh123 retention: 81.7%
MRP1 [2]
  calcein-AM retained in the cells: 72%
SNB-75
  Log10GI50: -6.33 Molar
  Log10LC50: -4.42 Molar
  Log10TGI: -4.85 Molar
  TGI: 1.42E-5 Molar
SNB-75; 1.00E-5 Molar
  Growth Percent: -11.48%
SNB-75; Homo sapiens
  GI50: 0.47 µM
SNB-75; [3]
  CC50: 37.8 µM
SNB-75; Log10 Concentration -4.0
  Percent Growth: -100%
SNB-75; Log10 Concentration -5.0
  Percent Growth: 18%
SNB-75; Log10 Concentration -6.0
  Percent Growth: 34%
SNB-75; Log10 Concentration -7.0
  Percent Growth: 82%
SNB-75; Log10 Concentration -8.0
  Percent Growth: 86%
HCT-116
  Log10GI50: -6.46 Molar
  Log10LC50: -5.26 Molar
  Log10TGI: -5.83 Molar
  TGI: 1.48E-6 Molar
HCT-116; 1.00E-5 Molar
  Growth Percent: 16.04%
HCT-116; Homo sapiens
  GI50: 0.348 µM
HCT-116; [3]
  CC50: 5.48 µM
HCT-116; Log10 Concentration -4.0
  Percent Growth: -96%
HCT-116; Log10 Concentration -5.0
  Percent Growth: -73%
HCT-116; Log10 Concentration -6.0
  Percent Growth: 15%
HCT-116; Log10 Concentration -7.0
  Percent Growth: 92%
HCT-116; Log10 Concentration -8.0
  Percent Growth: 94%
MOLT-4
  Log10GI50: -6.38 Molar
  Log10LC50: > -4.00 Molar
  Log10TGI: -4.57 Molar
  TGI: 2.71E-5 Molar
MOLT-4; 1.00E-5 Molar
  Growth Percent: 10.88%
MOLT-4; Homo sapiens
  GI50: 0.421 µM
MOLT-4; [3]
  CC50: > 100 µM
MOLT-4; Log10 Concentration -4.0
  Percent Growth: -12%
MOLT-4; Log10 Concentration -5.0
  Percent Growth: 9%
MOLT-4; Log10 Concentration -6.0
  Percent Growth: 21%
MOLT-4; Log10 Concentration -7.0
  Percent Growth: 98%
MOLT-4; Log10 Concentration -8.0
  Percent Growth: 97%
ACHN
  Growth Percent: 38.84%
HS 578T
  Log10LC50: > -4.00 Molar
  Log10TGI: -4.08 Molar
  TGI: 8.38E-5 Molar
HS 578T; 1.00E-5 Molar
  Growth Percent: 8.33%
HS 578T; [3]
  CC50: > 100 µM
HS 578T; Log10 Concentration -4.0
  Percent Growth: -8%
HS 578T; Log10 Concentration -5.0
  Percent Growth: 91%
HS 578T; Log10 Concentration -6.0
  Percent Growth: 37%
HS 578T; Log10 Concentration -7.0
  Percent Growth: 98%
HS 578T; Log10 Concentration -8.0
  Percent Growth: 96%
COLO 205
  Growth Percent: 20.45%
